Experimental data as given in ChEMBL document CHEMBL1201862, “PubChem BioAssay data set” (2004).
Calls of active or inactive are those of the source.

Experiments:
Format in all cases: functional
[1] = molecular target: T1, Microphthalmia-associated transcription factor (Homo sapiens, UniProt O75030); assay: reducers of TRPM1 reporter luminescence, concentration series – cell-based, SK-MEL-5, cherry-picked, set 3, MITF inhibitor project, dose response (AID 493073);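 note: SK-MEL-5 melanoma cells with luciferase driven by the MITF target TRPM1 promoter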
T1 sequence (O75030 whole entry): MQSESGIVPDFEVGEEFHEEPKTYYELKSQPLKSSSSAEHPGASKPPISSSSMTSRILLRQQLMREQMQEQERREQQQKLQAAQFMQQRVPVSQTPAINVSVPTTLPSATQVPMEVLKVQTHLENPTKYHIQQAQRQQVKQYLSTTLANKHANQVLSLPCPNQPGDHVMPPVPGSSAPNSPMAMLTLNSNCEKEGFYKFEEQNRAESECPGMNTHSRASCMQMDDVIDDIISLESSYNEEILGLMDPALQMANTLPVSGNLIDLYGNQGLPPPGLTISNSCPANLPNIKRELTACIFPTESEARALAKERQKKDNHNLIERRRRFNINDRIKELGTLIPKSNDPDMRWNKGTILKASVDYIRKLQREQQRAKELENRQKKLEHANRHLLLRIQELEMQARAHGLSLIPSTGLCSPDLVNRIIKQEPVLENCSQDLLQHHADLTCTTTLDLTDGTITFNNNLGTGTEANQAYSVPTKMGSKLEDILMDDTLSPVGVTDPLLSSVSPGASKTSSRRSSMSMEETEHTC

[2] = molecular target: T2, Replicative DNA helicase DnaB (Mycobacterium tuberculosis, UniProt P9WMR3); assay: DnaB intein splicing inhibitors, dose response, biochemical, cell-free fluorescence (AID 449749)
T2 sequence (P9WMR3 whole entry): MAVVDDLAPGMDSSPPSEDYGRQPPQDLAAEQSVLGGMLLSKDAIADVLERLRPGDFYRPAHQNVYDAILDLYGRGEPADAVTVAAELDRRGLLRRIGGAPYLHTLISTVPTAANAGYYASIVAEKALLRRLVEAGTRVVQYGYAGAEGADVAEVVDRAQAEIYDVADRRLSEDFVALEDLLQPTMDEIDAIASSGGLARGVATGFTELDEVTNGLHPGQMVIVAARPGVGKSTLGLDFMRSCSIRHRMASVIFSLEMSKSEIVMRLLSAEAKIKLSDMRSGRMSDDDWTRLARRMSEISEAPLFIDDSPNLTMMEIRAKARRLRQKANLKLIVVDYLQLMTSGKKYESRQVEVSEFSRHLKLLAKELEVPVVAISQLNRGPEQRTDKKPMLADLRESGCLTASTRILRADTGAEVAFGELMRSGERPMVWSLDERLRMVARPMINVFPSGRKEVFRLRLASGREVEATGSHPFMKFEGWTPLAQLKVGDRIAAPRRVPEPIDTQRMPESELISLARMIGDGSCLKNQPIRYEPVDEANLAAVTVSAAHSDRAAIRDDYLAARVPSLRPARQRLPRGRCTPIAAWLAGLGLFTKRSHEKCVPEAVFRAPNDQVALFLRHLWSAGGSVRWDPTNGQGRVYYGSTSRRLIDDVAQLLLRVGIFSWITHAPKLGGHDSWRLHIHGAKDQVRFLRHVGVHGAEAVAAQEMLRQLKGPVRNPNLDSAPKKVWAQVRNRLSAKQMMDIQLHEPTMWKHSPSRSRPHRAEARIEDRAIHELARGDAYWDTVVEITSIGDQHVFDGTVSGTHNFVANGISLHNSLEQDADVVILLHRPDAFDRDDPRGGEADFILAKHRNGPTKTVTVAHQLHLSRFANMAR

Protein RecA = molecular target: T3, Protein RecA (Mycobacterium tuberculosis, UniProt P9WHJ3); assay: Fluorescence Cell-Free Homogeneous Dose Retest to Identify Inhibitors of RecA-Intein Splicing Activity. [Related pubchem assays (depositor defined):AID2097, AID2223, AID489010, AID492950]
T3 sequence (P9WHJ3 whole entry): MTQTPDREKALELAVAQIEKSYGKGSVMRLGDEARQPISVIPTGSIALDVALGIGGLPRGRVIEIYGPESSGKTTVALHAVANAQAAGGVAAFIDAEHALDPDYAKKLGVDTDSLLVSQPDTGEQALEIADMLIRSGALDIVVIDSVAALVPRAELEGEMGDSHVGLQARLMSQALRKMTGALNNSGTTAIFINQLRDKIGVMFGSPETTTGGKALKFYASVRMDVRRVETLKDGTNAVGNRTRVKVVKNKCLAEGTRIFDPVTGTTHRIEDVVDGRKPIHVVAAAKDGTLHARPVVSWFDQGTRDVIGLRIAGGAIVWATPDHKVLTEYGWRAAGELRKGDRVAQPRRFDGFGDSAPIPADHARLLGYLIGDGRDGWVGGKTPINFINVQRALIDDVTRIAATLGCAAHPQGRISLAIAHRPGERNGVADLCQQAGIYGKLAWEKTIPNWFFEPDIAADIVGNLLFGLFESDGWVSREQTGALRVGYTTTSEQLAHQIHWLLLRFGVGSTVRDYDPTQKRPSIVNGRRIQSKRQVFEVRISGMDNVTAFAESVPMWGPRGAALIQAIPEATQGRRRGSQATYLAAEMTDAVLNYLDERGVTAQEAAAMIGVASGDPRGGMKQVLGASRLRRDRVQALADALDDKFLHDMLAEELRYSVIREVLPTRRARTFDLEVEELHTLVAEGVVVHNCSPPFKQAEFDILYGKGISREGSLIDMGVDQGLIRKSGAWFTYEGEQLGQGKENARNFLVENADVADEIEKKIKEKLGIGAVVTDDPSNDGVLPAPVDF

A-375 [3] = assay: MITF: Counter assay: A375 proliferation Measured in Cell-Based System Using Plate Reader - 2084-03_Inhibitor_Dose_DryPowder_Activity. [Related pubchem assays (depositor defined):AID488944]; conditions: Homo sapiens
A-375 [4] = assay: proliferation inhibition in MITF-low A375 cells – cell-based, cherry-pick samples, set 2, counter-screen for MITF modulator project, dose response (AID 540335); conditions: Homo sapiens

Cc1c(C#N)c(NC(=O)CCl)n(Cc2cccs2)c1C
active: AC50 [1] 7.07 µM | AC50 [2] 48 µM | EC50 (Protein RecA) 9.25 µM | AC50 (A-375 [3]) > 35 µM | AC50 (A-375 [4]) > 35 µM
